Measurements reported in article doi:10.1101/2024.05.16.594348v1 (bioRxiv, 2024).
Where a SMILES comes first, the peptide text is derived from it. [ ]: non-standard residue; d: D form. βAla = NCCC(=O)O

How the values were obtained:
hMSCs [1] = experiment: Peptide degradation in media on top of cells; format: in vitro ADME, human; settings: 24 h, LCMS
hUVECs [2] = experiment: Peptide degradation in media on top of cells; format: in vitro ADME, human; settings: 24 h, LCMS
hMSCs [3] = experiment: Cell spreading of hMSCs in peptide-crosslinked PEG hydrogels; format: cell-based, human; settings: PEG hydrogels containing hMSCs or hUVECs at 20 million cells/mL, up to Day 7
[4] = Peptide degradation in cell-free conditioned media; format: in vitro ADME, human; settings: initial peptide library, 24 h, LCMS, text to Fig. 2B
[5] = Peptide degradation in cell-free conditioned media; format: in vitro ADME, human; settings: initial peptide library, 24 h, LCMS, text to Fig. 2B; remark: listed apart in the source
hMSCs [6] = experiment: Peptide degradation in Cells condition with MMP-14 inhibitor, hMSCs; format: in vitro ADME, human; settings: 50 μM peptide, MMP-14 inhibitor NSC 405020, 24 h, LCMS; text to Fig. 4
hUVECs [7] = experiment: Viability of hUVECs in peptide-crosslinked PEG hydrogels; format: cell-based, human
[8] = individually synthesized peptides, 50 μM, text to Fig. 4
[9] = initial peptide library, text to Fig. 2B

degradation in the cells condition, hMSCs (hMSCs [1]; [8]) [%] | degradation in the cells condition, hUVECs (hUVECs [2]; [8]) [%] | degradation in the cells condition, hMSCs (hMSCs [1]; [9]) [%] | degradation in media condition, hUVEC [4] | degradation in the cells condition, hUVECs (hUVECs [2]; [9]) [%] | degradation in media condition, hMSC [5] | degradation in the Cells + Inhibitor condition, hMSCs (hMSCs [6]) [%] | Compound | cytotoxicity of hydrogels crosslinked by the peptide (hMSCs [3]) | hUVEC cell number after seven days in crosslinked gels, difference (hUVECs [7]; PanMMP compared with the KLVAD peptides, DNA quantification, Fig. 6D) | hUVEC metabolic activity after seven days in crosslinked gels (hUVECs [7]; compared with the KLVAD peptides, alamarBlue, Fig. 6C)
54 | 16 |  |  |  |  |  | CSCC[C@H](NC(=O)[C@H](CC(C)C)NC(=O)[C@H](CC(=O)O)NC(=O)[C@H](C)NC(=O)[C@@H](NC(=O)[C@H](CC(C)C)NC(=O)[C@H](CCCCN)NC(=O)CCNC(C)=O)C(C)C)C(=O)N[C@@H](C)C(=O)N[C@@H](CO)C(=O)N[C@@H](C)C(=O)N[C@@H](CCC(=O)O)C(=O)NCCC(N)=O [KLVAD-LM] (Ac-[βAla]KLVADLMASAE[βAla]-NH2) |  |  | 
22 | 4 | 30 | less than 3% | 8 | less than 3% |  | KLVADNYASAE | cytotoxic |  | 
65 |  | 61 |  | 31 |  | 22 | GPQGIWGQ [PanMMP, reference compound] |  | not significant | higher metabolic activity
